Source: PMC3108484 (Frontiers in Pharmacology, 2011)
Values joined by “and” are separate entries in the source; they are usually repeats but may differ in a detail not shown here. Equal values may be shown once.

What was measured:
Rat NMDA = Rat NMDA (Rattus norvegicus, UniProt Q00959); experiment: Radioligand binding: Rat NMDA; details: read-out: % Inhibition of specific binding (1 μM)
5-HT4 receptor = 5-HT4 receptor (Cavia porcellus, UniProt O70528); experiment: Guinea pig colonic longitudinal muscle/myenteric plexus; details: isolated tissue, % of primed 5-HT (0.3 μM) maximum
rat esophagus = experiment: Rat esophageal relaxation; assay type: in vivo; details: cumulative i.d. dosing, anesthetized rats
Human 5-HT transporter = Human 5-HT transporter (Homo sapiens, UniProt P31645); experiment: Radioligand binding: Human 5-HT transporter
Rat CRF1 = Rat CRF1 (Rattus norvegicus, UniProt P35353); experiment: Radioligand binding: Rat CRF1
Rat PACAP (PAC1) = Rat PACAP (PAC1) (Rattus norvegicus, UniProt P32215); experiment: Radioligand binding: Rat PACAP
Human CGRP = Human CGRP (Homo sapiens, UniProt O60894+Q16602); experiment: Radioligand binding: Human CGRP
Rat α2 (non-selective) = experiment: Radioligand binding: Rat α2; details: [3H]-RX 821002 0.5 nM
Human CCK1 (CCKA) = Human CCK1 (CCKA) (Homo sapiens, UniProt P32238); experiment: Radioligand binding: Human CCK1
Human Y2 = Human Y2 (Homo sapiens, UniProt P49146); experiment: Radioligand binding: Human Y2
[1] = target: Rat α4β2 nAChR (α-BGTX-insensitive) (Rattus norvegicus, UniProt P09483+P12390); experiment: Radioligand binding: Rat α4β2 nAChR
Guinea pig H1 = Guinea pig H1 (Cavia porcellus, UniProt P31389); experiment: Radioligand binding: Guinea pig H1
[2] = target: Rat galanin (non-selective); experiment: Radioligand binding: Rat galanin; details: [125I]-galanin 0.05 nM
Human motilin = Human motilin (Homo sapiens, UniProt O43193); experiment: Radioligand binding: Human motilin
Human PDE4 = experiment: Enzyme inhibition: Human PDE4; details: [3H]-cAMP + cAMP 1 μM, TD-8954 1 μM
[3] = read-out: % Inhibition of specific binding (1 μM)

Sequence of Rat α4β2 nAChR (α-BGTX-insensitive) (P09483 31-630): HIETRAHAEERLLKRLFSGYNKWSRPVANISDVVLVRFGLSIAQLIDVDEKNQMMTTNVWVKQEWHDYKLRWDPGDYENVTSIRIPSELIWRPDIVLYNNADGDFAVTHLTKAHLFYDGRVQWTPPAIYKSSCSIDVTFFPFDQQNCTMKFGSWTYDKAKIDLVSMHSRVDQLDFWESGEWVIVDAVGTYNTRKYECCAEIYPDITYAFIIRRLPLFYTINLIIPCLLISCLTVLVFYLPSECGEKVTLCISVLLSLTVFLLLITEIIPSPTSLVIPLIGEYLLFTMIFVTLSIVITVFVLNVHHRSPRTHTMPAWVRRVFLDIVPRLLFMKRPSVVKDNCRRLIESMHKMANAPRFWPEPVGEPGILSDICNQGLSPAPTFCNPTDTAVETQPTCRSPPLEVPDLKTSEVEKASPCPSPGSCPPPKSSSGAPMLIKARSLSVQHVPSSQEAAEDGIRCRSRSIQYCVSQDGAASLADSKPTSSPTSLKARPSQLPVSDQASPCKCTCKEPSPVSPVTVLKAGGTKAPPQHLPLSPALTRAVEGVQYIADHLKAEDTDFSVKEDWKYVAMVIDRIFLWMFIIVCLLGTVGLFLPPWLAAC
Sequence of Rat α4β2 nAChR (α-BGTX-insensitive) (P12390 25-500): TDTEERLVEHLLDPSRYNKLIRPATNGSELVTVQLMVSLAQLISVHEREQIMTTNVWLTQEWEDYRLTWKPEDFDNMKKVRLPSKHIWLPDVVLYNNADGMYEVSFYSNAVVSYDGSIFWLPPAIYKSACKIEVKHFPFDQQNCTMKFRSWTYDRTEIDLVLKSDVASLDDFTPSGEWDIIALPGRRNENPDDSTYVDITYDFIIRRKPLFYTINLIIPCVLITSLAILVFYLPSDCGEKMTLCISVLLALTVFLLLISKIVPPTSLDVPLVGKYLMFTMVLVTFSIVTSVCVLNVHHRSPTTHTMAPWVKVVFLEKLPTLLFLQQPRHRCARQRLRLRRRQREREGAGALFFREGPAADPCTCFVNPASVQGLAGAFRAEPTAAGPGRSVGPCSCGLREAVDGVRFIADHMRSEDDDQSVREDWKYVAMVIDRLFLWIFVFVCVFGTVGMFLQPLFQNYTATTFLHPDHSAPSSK
Sequence of Human Y2 (P49146 whole entry): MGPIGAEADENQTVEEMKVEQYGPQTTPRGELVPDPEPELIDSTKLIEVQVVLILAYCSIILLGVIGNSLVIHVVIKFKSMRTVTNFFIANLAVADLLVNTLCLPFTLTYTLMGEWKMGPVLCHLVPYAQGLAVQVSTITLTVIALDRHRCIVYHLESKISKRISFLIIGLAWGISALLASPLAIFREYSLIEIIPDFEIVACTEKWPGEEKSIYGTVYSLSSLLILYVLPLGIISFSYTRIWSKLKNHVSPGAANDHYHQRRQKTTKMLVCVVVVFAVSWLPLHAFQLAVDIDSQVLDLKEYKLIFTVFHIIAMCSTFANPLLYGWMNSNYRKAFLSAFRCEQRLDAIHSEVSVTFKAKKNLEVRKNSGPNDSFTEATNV
Sequence of Rat PACAP (PAC1) (P32215 20-523): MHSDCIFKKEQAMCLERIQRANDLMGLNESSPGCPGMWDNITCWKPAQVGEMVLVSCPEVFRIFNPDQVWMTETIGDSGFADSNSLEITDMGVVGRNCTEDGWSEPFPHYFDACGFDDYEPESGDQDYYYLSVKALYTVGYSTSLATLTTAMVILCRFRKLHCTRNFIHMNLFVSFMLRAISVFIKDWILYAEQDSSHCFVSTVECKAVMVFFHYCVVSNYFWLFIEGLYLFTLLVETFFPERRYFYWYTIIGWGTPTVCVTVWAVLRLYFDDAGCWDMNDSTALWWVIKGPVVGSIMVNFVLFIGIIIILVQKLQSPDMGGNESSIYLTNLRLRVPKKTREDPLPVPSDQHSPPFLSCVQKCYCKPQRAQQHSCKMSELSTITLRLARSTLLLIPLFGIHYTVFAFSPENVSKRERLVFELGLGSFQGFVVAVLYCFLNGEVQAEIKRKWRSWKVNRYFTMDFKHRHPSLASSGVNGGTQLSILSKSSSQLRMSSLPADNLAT
Sequence of Rat CRF1 (P35353 24-415): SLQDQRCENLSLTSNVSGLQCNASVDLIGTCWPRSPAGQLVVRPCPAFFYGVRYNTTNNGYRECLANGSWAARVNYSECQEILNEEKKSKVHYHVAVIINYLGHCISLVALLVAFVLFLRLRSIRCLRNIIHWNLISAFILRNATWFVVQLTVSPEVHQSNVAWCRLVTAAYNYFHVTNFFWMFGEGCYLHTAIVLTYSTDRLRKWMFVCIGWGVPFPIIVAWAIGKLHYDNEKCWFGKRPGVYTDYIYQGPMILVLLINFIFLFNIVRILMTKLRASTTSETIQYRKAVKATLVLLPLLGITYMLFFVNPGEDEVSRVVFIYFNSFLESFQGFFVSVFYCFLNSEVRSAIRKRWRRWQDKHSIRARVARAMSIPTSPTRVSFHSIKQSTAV
Sequence of 5-HT4 receptor (O70528 whole entry): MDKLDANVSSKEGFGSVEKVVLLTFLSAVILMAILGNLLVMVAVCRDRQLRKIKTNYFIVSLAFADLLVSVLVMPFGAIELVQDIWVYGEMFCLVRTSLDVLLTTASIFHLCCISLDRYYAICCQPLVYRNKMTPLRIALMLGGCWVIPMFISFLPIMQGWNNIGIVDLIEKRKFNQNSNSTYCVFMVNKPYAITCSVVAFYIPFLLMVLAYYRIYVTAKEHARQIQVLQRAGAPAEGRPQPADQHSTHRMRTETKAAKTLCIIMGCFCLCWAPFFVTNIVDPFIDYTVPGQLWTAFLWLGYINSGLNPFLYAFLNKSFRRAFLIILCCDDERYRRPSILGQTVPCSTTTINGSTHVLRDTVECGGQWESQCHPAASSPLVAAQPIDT
Sequence of Rat NMDA (Q00959 23-1464, other chains not shown): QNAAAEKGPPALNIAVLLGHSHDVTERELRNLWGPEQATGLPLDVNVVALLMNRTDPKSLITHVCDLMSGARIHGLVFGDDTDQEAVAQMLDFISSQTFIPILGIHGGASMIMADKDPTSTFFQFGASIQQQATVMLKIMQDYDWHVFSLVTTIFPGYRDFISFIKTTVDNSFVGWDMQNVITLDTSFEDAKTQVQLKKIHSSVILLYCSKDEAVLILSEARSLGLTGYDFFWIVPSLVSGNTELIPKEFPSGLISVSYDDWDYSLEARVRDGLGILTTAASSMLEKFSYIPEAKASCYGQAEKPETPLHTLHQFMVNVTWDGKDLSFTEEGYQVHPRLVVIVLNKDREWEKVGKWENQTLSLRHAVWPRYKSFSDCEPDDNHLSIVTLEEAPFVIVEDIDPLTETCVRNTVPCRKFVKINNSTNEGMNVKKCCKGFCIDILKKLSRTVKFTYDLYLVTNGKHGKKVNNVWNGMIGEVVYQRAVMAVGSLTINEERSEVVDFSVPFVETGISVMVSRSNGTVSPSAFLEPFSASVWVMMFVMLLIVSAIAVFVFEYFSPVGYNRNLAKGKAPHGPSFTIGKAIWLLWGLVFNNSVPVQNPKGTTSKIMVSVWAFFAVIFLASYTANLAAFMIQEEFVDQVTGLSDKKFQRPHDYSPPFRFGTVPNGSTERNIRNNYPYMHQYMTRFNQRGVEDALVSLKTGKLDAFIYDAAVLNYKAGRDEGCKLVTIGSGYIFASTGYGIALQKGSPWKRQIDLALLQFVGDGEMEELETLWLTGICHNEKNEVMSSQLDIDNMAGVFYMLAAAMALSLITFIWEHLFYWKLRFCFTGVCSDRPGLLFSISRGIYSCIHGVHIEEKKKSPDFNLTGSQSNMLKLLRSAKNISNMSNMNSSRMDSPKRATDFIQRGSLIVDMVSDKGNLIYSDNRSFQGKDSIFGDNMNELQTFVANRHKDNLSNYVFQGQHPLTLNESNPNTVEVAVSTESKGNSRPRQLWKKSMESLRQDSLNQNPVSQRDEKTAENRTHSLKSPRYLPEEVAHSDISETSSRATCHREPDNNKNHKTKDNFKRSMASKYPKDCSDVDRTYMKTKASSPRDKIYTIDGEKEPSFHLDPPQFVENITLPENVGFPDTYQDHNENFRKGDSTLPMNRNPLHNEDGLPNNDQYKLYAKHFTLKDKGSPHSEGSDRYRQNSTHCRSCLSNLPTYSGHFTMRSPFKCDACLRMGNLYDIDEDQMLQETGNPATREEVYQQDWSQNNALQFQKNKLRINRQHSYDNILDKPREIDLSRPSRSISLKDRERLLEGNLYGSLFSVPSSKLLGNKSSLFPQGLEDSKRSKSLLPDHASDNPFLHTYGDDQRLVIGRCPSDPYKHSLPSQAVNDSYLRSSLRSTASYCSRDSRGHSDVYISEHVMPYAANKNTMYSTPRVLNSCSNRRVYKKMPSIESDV
Sequence of Human CCK1 (CCKA) (P32238 whole entry): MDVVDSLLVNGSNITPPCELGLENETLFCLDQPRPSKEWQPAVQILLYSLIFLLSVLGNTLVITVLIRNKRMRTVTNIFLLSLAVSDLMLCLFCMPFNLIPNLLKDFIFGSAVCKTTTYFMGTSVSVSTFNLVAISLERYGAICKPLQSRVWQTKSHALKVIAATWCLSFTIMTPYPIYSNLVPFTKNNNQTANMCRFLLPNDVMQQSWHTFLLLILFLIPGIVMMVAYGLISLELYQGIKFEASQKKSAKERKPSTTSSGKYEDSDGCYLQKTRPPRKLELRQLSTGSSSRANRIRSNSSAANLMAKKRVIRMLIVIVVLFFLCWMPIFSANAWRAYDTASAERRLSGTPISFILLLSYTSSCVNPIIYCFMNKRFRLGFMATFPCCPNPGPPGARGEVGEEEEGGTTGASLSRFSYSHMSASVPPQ
Sequence of Human motilin (O43193 whole entry): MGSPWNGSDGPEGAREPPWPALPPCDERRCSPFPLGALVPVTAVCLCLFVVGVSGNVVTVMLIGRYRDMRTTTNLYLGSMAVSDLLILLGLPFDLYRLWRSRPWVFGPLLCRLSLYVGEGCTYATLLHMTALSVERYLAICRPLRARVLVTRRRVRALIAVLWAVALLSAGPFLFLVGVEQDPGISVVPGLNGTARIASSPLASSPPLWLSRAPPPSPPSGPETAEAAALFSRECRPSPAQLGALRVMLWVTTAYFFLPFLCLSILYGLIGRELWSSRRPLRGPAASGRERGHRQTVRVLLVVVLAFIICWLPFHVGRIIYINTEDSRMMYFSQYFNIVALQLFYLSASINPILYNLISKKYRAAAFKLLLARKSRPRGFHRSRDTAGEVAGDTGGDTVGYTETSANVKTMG

COC(=O)N1CCC(CN2CCC(CNC(=O)c3cccc4[nH]c(C(C)C)nc34)CC2)CC1 [TD-8954, 4-(4-{[(2-isopropyl-1H-benzoimidazole-4-carbonyl)amino]methyl}-piperidin-1-ylmethyl)piperidine-1-carboxylic acid methyl ester]
inhibition at 1 µM (Rat NMDA): -6%
Guinea pig colonic LMMP contractile activity IA (mean % 5-HT max ± SEM) (5-HT4 receptor): 55 % 5-HT max and 55 ± 2 % 5-HT max
dose associated with a relaxation response of 0.1 mm (rat esophagus): 0.23 mg/kg
Ki (Human 5-HT transporter): > 1000 nM
Ki (Rat CRF1): > 1000 nM
inhibition at 1 µM (Rat CRF1; [3]): -6%
Ki (Rat PACAP (PAC1)): > 1000 nM
inhibition at 1 µM (Rat PACAP (PAC1); [3]): -3%
Ki (Human CGRP): > 1000 nM
pKi (Rat α2 (non-selective)): <6
Ki (Human CCK1 (CCKA)): > 1000 nM
Ki (Human Y2): > 1000 nM
inhibition at 1 µM (Human Y2; [3]): -5%
Ki [1]: > 1000 nM
inhibition at 1 µM [1, 3]: -2%
Ki (Guinea pig H1): > 1000 nM
pKi [2]: <6
% Inhibition of specific binding (1 μM) ([2]; TD-8954 1 μM): 1%
Ki (Human motilin): > 1000 nM
% Inhibition of control (1 μM) (Human PDE4): −19%
